This is an account of results in article PMC4481117 (Molecular Pain, 2015).

One assay concerns wild-type HEK293 cells. Kind of assay: Translocation of Dyn A into wild-type HEK293 cells (immunolabeling). As to conditions: 20 μM Dyn A, 40 min at 37 °C. The class given is cell-based, Human. Here is the method: Fig. 5 Translocation of Dyn A into cells. Mac-1-expressing (a) and wild-type HEK293 (b) cells were incubated with 20 μM and 100 μM of Dyn A for 40 min at 37 °C, fixed, permeabilized and incubated with anti-dynorphin antibodies followed by Alexa Fluor 488-conjugated secondary goat anti-rabbit antibodies. No labeling was detected in the absence of primary antibody. c, Enlarged images of Dyn A-accumulated Mac-1- and wild-type HEK cells shown in a and b. d, Quantification of fluorescent cells shown in a and b
Mac-1-HEK 293 and wild-type HEK 293 cells were incubated for 10 min with different concentrations (0–100 μM) of Dyn A and allowed to adhere to glass coverslips coated with poly-Lysine for 30 min. Adherent cells were fixed in 2 % paraformaldehyde solution, permeabilized with 0.1 % Tween-20, and blocked with 10 % normal goat serum plus 1 % BSA. The coverslips were incubated with 5 μg/ml polyclonal anti-Dyn A antibody followed by an secondary goat anti-rabbit antibody conjugated to Alexa Fluor 488 (1:1000). Images were taken using a Leica DM 4000B microscope (Leica, Buffalo Grove, IL).

The test system of a further assay is rat mast cells. As to conditions: cited from earlier work. From the text: (§1) Apart from their effects on κ-opioid receptors on neurons, Dyn A exerts numerous effects on leukocytes, particularly myeloid cells. […] In addition, Dyn A (residues 1–13) and Dyn A (residues 1–9) stimulate ...
For a further assay, the system named is macrophage. As to conditions: cited from earlier work.
From the text: as §1

A further assay relates to macrophages. As to conditions: cited from earlier work.
From the text: as §1

The test system of another assay is Mac-1-HEK293 cells. The assay can be described thus: Transwell migration of Mac-1-HEK293 cells to Dyn A. As to conditions: 16 h at 37 °C. Type of assay: cell-based, Human. Here is the method: Fig. 6 Migration of Mac-1-expressing cells to Dyn A in a Transwell system. a, Mac-1-expressing HEK 293 cells (100 μl at 3 × 10^6 cell/ml) were added to the upper wells of the transwell chamber and their ability to migrate to different concentrations of Dyn A placed in the lower chamber was analyzed. After 16 hours at 37 °C, migrated cells were fixed, stained, and counted. Data are presented as numbers of migrated cells per field ± S.E. for five random fields per well. The figure is representative of 5 experiments. b, Mac-1-expressing or wild-type HEK 293 cells were added to the upper wells of the transwell chamber and their ability to migrate to 10 μM Dyn A placed in the lower chamber was analyzed as in A. Some Mac-1-HEK293 cells were pretreated with 20 μg/ml of mAbs 44a (anti-αM), IB4 (anti-β2) or OKM1 (non function-blocking anti-αM) or medium alone before addition to the upper wells. ***, medium alone. Data are presented as the number of migrated cells per field ± S.E. for five random fields/well from 3 separate experiments. **, p < 0.01. c, migration of TG-elicited macrophages isolated from the peritoneum of wild-type and Mac-1-deficient mice. Macrophages (3x10^5) were placed in the upper chamber and allowed to migrate to Dyn A (10 μM) in the lower chamber for 90 min. The number of migrated cells was determined as in A. Data are presented as number of migrated cells per field ± S.E. for five random fields per well. The figure is representative of 3 experiments
Migration assays with wild-type and Mac-1-expressing HEK293 cells and purified macrophages using Transwell inserts (5 μm pore size) were performed as previously described. […] The photographs were taken using a 20x objective and cells in […] and cells were counted. […]

Turning to `CC[C@H](C)[C@H](NC(=O)[C@H](CCCNC(=N)N)NC(=O)[C@H](CCCNC(=N)N)NC(=O)[C@H](CC(C)C)NC(=O)[C@H](Cc1ccccc1)NC(=O)CNC(=O)CNC(=O)[C@@H](N)Cc1ccc(O)cc1)C(=O)N[C@@H](CCCNC(=N)N)C(=O)N1CCC[C@H]1C(=O)N[C@@H](CCCCN)C(=O)N[C@@H](CC(C)C)C(=O)N[C@@H](CCCCN)C(=O)N[C@@H](Cc1c[nH]c2ccccc12)C(=O)N[C@@H](CC(=O)O)C(=O)N[C@@H](CC(N)=O)C(=O)N[C@@H](CCC(N)=O)C(=O)O` [Dyn A], the “Localization of Dyn A in wild-type HEK293 cells” value in the assay on wild-type HEK293 cells was “entering inside wild-type HEK293 cells”. Further, in the assay on rat mast cells, the “Degranulation and histamine release” value was “induce degranulation and histamine release from rat mast cells”. Further, in the assay on macrophage, the Superoxide generation result is “stimulate macrophage superoxide generation” and the Zymosan-triggered oxidative burst result is “enhance macrophage zymosan-triggered oxidative burst”. Further, in the assay with macrophage (induced by LPS and IFN-γ), the Nitric oxide release result was “decrease nitric oxide release induced by LPS and IFN-γ”. Further, the “Secretion of IL-1 and TNFα” value with macrophages was “increase secretion of IL-1 and TNFα by macrophages”. In the assay with Mac-1-HEK293 cells (Transwell 5 μm), the “Concentration at which migratory response reaches saturation” value amounted to 5 µM and the “Lowest concentration inducing migration” value lay in the range of 0.5 to 1 µM. For the same molecule, the “Migration of Mac-1-HEK293 cells (in words)” value with Mac-1-HEK293 cells (Transwell) is given as “strong concentration-dependent migratory response”.
